“And” between values parts separate entries of the source, which are not always exact repeats. Equal values may be shown once. Read-outs that look alike come from different tables or passages of the source.
Columns and labels:
[1] = test system: VGSC currents (nNav1.5 / aNav1.5) in SW620 cells; assay: Whole-cell patch-clamp recording of VGSC currents in siRNA-transfected SW620 cells; assay type: cell-based, human; conditions: for proportion of cells demonstrating VGSC currents / peak VGSC current density: SW620 cells after siRNA transfection; for peak VGSC current density: median (25%-75% interquartile range); for Activation V1/2 (half-activation voltage) / Activation k (activation slope factor) / Inactivation V1/2 (half-inactivation voltage) / Inactivation k (inactivation slope factor) / Tinactivation (inactivation time constant) / Tpeak (time to peak): SW620 cells, 40 nM siRNA, 96 h transfection, 24 h serum starvation, mean ± SEM
Source text: Details of the patch pipettes, solutions, and the whole-cell recording protocols were as described previously (e.g. Laniado et al., 1997; 2001; Fraser et al., 2003a; Grimes et al, 1995). In brief, patch pipettes (tip resistances, ˜5 M Ω) were filled with a solution designed to block the outward K^+ currents; the composition was as follows (in mM): NaCl 5, CsCl 145, MgCl2 2, CaCl2) 1, HEPES 10 and EGTA 11, adjusted to pH 7.4 with 1 M CsOH. The estimated intracellular free Ca^2+ concentration was ˜15 nM (Laniado et al., 2001). Whole-cell membrane currents were recorded from cells that appeared ‘isolated’ in culture, using an Axopatch 200B amplifier (Axon Instruments, CA, USA). Analogue signals were filtered at 10 kHz using a low-pass Bessel filter, and series resistance errors were compensated by >90%. Electrophysiological signals were sampled at 50 kHz and digitised using an interface (Digidata 1200). Data acquisition and analysis of whole-cell currents were performed using pClamp software (Axon Instruments). A holding potential of −100 mV was applied, unless indicated otherwise. Standard voltage-clamp protocols were used to study the electrophysiological properties of the VGSC currents. There was a noticeable decrease in current amplitude with time in culture, also apparent in immunocytochemistry (FIG. 7). All routine recordings were done 24 hours after (re) plating and 24 hours of serum starvation (to match the condition of the invasion assays).
Conductance-voltage relationships were determined using the equation:
[formula] • where G is the conductance; I the current amplitude; V the test pulse; and Vrev the theoretical Na^+ reversal potential. Normalized curves for voltage dependence of steady-state activation and inactivation were fitted to a Boltzmann function of the form:
[formula] • where Gmax is the maximal conductance; Vm is the membrane voltage; V1/2 is the voltage at which the current is half activated/inactivated, and k is the slope factor of voltage sensitivity. For the time course of recovery from inactivation, the data was plotted as a function of recovery time and fitted to the following single exponential equation:
[formula] • where I is normalized current, t is time, t is the time constant, A is the amplitude of the normalized current, and C is the asymptote. More details can be found in Onkal et al. (2008).
(§1) Lipofectamine 2000 reagent (Invitrogen) was used as the transfection agent and the protocol was applied according to the manufacturer's instructions. […] Electrophysiological recordings of siRNA-treated cells were also performed in parallel at given time points and in random order. For these treatments, recordings were made from 19-37 cells from ≥4 different transfections with matching controls.

nNav1.5 mRNA = assay: Real-time RT-PCR of nNav1.5 mRNA levels in SW620 cells; assay type: cell-based, human; conditions: for decrease in nNav1.5 mRNA levels in comparison to c-siRNA: 40 nM siRNA, 90 h after transfection
Experimental: Steps for polymerase chain reactions (PCRs) were as described before (Fraser et al., 2005). Conventional PCRs were performed using HotStarTaq Plus technology (Qiagen Ltd, Manchester, UK) in a Primus PCR machine (MWG-Biotech, Eurofins Genomics, Ebersberg, Germany). Quantitative real-time PCRs were carried out utilising SYBR Green technology (Qiagen) and a DNA Engine Opticon 2 system (MJ Research, Bio-Rad Laboratories Ltd, Hamel Hempstead, UK). Duplicate reactions on each sample were carried out simultaneously for target and reference genes. Control PCRs were carried out routinely by including non-target (-RT) reactions and monitoring melting curves. The primer pairs used were as follows:
The mRNA levels were quantified using the comparative 2^−ΔΔC(t) method (Livak and Schmittgen, 2001).
as §1

SW620 cells [2] = assay: Matrigel invasion assay; assay type: cell-based, human; conditions: for reduction in number of invaded cells compared to c-siRNA: 40 nM siRNA, invasion over 48 h
Experimental: For hypoxia, cells were maintained as above but in 1% O2 for up to 120 h in a dedicated incubator (Micro Galaxy, RS Biotech Laboratory Equipment Ltd, Irvine, UK).
as §1
Thus, (i) insert filters (with 8 μm pores) were coated with 50 µl of 0.21 mg/ml Matrigel (BD Biosciences, Bedford, MA, USA); (ii) the chemotactic gradient was 0.1-10% FBS; and (iii) the cells were serum-starved for 24 hours and (iv) 10^5 cells were seeded onto each filter. After 48 hours, the insert was swabbed and then stained with crystal violet. The invaded cells in 12 non-overlapping fields of view were counted under ×400 magnification. […] Each treatment condition was tested 5-8 times.

[3] = target: persistent current, INaP, of VGSC, especially Nav1.5 (Canis lupus familiaris, UniProt Q865W3); conditions: Antzelevitch et al., 2004; read-out: IC50 for block of hypoxia-induced persistent current INaP; cited from earlier work
Chain of persistent current, INaP, of VGSC, especially Nav1.5 (Q865W3 1-2013): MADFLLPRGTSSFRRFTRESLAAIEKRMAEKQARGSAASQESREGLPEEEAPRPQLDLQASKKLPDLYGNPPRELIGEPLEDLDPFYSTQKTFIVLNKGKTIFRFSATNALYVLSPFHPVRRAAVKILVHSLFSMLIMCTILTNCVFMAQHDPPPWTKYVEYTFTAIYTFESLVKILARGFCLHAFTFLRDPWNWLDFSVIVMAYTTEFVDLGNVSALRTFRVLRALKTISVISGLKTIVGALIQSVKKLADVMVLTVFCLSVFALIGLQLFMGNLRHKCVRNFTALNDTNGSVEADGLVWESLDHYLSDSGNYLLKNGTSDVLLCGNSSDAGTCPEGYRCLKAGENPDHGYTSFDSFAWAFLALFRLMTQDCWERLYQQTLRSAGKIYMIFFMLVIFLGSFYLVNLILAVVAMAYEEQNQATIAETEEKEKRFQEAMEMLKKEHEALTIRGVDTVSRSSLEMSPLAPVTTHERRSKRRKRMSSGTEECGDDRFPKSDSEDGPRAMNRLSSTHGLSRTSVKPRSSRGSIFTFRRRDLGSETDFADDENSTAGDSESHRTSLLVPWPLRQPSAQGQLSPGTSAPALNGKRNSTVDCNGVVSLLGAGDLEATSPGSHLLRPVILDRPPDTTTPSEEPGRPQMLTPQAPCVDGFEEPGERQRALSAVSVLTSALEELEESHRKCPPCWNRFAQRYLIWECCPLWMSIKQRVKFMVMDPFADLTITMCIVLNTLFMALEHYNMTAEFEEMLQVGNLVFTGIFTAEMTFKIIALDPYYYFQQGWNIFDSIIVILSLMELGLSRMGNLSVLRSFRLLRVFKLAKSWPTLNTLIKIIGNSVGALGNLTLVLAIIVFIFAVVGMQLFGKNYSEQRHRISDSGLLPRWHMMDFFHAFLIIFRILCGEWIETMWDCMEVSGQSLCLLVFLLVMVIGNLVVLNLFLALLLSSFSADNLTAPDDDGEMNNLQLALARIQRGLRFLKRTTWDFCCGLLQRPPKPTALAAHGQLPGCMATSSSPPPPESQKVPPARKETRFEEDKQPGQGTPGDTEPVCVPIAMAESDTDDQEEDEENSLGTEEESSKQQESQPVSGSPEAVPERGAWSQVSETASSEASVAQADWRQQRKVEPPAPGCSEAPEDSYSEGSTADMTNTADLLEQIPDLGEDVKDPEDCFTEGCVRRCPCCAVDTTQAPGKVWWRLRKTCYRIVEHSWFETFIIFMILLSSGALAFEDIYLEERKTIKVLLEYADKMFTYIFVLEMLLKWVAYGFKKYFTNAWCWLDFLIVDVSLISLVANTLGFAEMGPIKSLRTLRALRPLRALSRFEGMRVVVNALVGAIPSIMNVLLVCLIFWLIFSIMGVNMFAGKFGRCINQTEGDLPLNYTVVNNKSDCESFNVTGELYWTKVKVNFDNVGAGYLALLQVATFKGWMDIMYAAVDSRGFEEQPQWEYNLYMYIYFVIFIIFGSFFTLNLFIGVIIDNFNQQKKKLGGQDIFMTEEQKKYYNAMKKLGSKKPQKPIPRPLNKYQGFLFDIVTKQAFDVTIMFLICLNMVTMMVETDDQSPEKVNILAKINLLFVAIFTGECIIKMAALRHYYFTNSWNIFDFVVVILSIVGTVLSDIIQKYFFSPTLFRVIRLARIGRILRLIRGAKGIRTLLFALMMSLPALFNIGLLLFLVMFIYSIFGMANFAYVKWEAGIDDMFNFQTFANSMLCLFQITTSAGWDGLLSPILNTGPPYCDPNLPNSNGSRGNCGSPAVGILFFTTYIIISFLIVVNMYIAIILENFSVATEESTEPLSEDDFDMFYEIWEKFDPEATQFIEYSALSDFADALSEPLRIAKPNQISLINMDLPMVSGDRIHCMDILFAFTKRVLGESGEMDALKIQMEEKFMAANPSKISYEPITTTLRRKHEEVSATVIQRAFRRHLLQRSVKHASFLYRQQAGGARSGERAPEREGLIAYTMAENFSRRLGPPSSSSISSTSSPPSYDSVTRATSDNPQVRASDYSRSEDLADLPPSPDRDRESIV

nNav1.5 protein = assay: Western blot of nNav1.5 protein expression (NESO-pAb); assay type: cell-based, human
Experimental: Cells were washed with PBS containing 0.5 mM NaF, 0.1 mM Na3 VO4 (Sigma-Aldrich) and lysed in RIPA buffer (0.5M Tris-HCl, pH 7.4, 1.5M NaCl, 2.5% deoxycholic acid, 10% NP-40, 10 mM EDTA) (Merck-Millipore Ltd, Watford, UK) supplemented with an EDTA-free protease inhibitor cocktail (Roche Products Ltd, Welwyn Garden City, UK). Then, cells were vortexed for 30 mins at 4° C. The lysate was centrifuged (15,000 g) at 4° C. and supernatant collected for measurement of the protein concentration by a standard Bradford assay (Bio-Rad protein assay, Bio-Rad). After 15 minutes at 70° C. in SDS loading buffer (62.5 mM Tris-HCl, 20% glycerol, 2% SDS, 100 mM DTT, 0.0025% bromphenol blue, 10% B-mercaptoethanol; pH 6.8), 50 μg of protein per lane was separated by 7.5% SDS-polyacrylamide gel electrophoresis and electroblotted onto 0.45 μm nitrocellulose membrane (Thermo Scientific). Equal protein loading was controlled by Ponceau S staining (Sigma-Aldrich). Membranes were ‘blocked’ with 5% bovine serum albumin (BSA) in TBS+0.1% Tween-20 for 1 hour and probed for 20 hours with the following primary antibodies (diluted in TBS+0.1% Tween 20+1% BSA): i) NESO-pAb antibody for nNav1.5 (1 μl/ml); and (ii) anti-actinin antibody (1 μl/ml) as loading control (Sigma-Aldrich). […]

SW620 cells [4] = assay: Cell viability (trypan blue exclusion) and proliferation (MTT); assay type: cell-based, human
Experimental: Cellular viability (toxicity) and proliferation were quantified as described previously (Fraser et al., 1999, 2003b; Grimes et al., 1995). Briefly, cells were seeded into 35 mm plates at 3.5×10^4/plate (for toxicity) or 24-well plates at 2× 10^4/well (for proliferation) and allowed to settle overnight. The cells were incubated under control conditions or treated with the drug, with a change of medium every 24 h. Cell viability was determined by trypan blue exclusion assay. Proliferation was determined by the colorimetric 3-(4,5-dimethylthiazol-2-yl)-2,5-diphenyltetrazolium bromide (MTT) assay. A ‘standard curve’ was constructed showing linearity over the experimental range. Each biological repeat (treatment and control) was performed in triplicate.

[5] = test system: Nav1.5 splice variant (neonatal and adult); conditions: cited from earlier work

Compound: UAUCAUGGCGUAUGUAUCA [n2-siRNA]
- proportion of cells demonstrating VGSC currents [1]: 33%
- peak VGSC current density [1]: 0.0 (0-2.4) pA/pF
- decrease in nNav1.5 mRNA levels in comparison to c-siRNA (nNav1.5 mRNA; SW620 cells): 85±10%
- reduction in number of invaded cells compared to c-siRNA (SW620 cells [2]; SW620 cells, normoxia): 45%

Compound: GUCUCAGCCUUACGCACCU (listed as RNA, chemistry not given here) [a-siRNA, siRNA targeting 'adult' Nav1.5 (aNav1.5)]
- proportion of cells demonstrating VGSC currents [1]: 58%
- peak VGSC current density [1]: 3.5 (0-7.5) pA/pF
- Activation V1/2 (half-activation voltage) [1]: −28.1 ± 1.7 mV
- Activation k (activation slope factor) [1]: 6.7 ± 0.6 mV
- Inactivation V1/2 (half-inactivation voltage) [1]: −95.6 ± 2.1 mV
- Inactivation k (inactivation slope factor) [1]: −6.7 ± 0.7 mV
- Tinactivation (inactivation time constant) [1]: 1.35 ± 0.19 ms
- Tpeak (time to peak) [1]: 0.90 ± 0.06 ms
- reduction in number of invaded cells compared to c-siRNA (SW620 cells [2]; SW620 cells, normoxia): 17%

Compound: GAGUCCUGAGAGCUCUAAA [n3-siRNA]
- proportion of cells demonstrating VGSC currents [1]: 51%
- peak VGSC current density [1]: 1.0 (0-6.8) pA/pF
- Activation V1/2 (half-activation voltage) [1]: −24.7 ± 2.0 mV
- Activation k (activation slope factor) [1]: 6.1 ± 0.3 mV
- Inactivation V1/2 (half-inactivation voltage) [1]: −86.5 ± 1.2 mV
- Inactivation k (inactivation slope factor) [1]: −5.0 ± 0.4 mV
- Tinactivation (inactivation time constant) [1]: 0.80 ± 0.10 ms
- Tpeak (time to peak) [1]: 0.66 ± 0.04 ms
- decrease in nNav1.5 mRNA levels in comparison to c-siRNA (nNav1.5 mRNA; SW620 cells): 32±10%
- reduction in number of invaded cells compared to c-siRNA (SW620 cells [2]; SW620 cells, normoxia): 73%
- hypoxia-induced increase in invasiveness (SW620 cells [2]; SW620 cells, hypoxia 1% O2 72 h, siRNA-treated): completely suppressed

Compound: COc1ccccc1OCC(O)CN1CCN(CC(=O)Nc2c(C)cccc2C)CC1 (stereo not drawn) [ranolazine]
- IC50 [3]: 5.9 µM
- effect on hypoxia-induced increase of nNav1.5 mRNA expression (nNav1.5 mRNA; 5 μM, hypoxia 1% O2 48 h, SW620 cells): blocked this increase
- effect on nNav1.5 mRNA expression (nNav1.5 mRNA; 5 μM, normoxia, SW620 cells): Lack of effect
- effect on nNav1.5 protein expression (nNav1.5 protein; 5 μM, normoxia and hypoxia, SW620 cells): no effect
- reduction in invasion cf. hypoxia control (SW620 cells [2]; 5 μM, hypoxia (1% O2, 72 h), SW620 cells): 37%
- reduction in invasion (SW620 cells [2]; 5 μM, normoxia, SW620 cells): 9%
- inhibition of invasion, dose dependence (SW620 cells [2]; 1-10 μM, hypoxia, control/c-siRNA-treated SW620 cells): dose-dependent manner with two-fold difference over 1-10 μM
- effect on invasiveness in cells pre-treated with n3-siRNA (SW620 cells [2]; up to 10 μM, hypoxia, n3-siRNA pre-treated SW620 cells): no additional effect
- effect on proliferation (SW620 cells [4]; up to 10 µM, normoxia or hypoxia (not shown)): not affected

Compound: NC1=N[C@H](O)[C@H]2[C@H]3O[C@]4(O)O[C@@H]([C@@H](O)[C@@]2(N1)[C@@H]4O)[C@]3(O)CO [TTX, Tetrodotoxin]
- block of currents generated by either Nav1.5 splice variant [5]: > 80%
- effect on hypoxia-induced increase of nNav1.5 mRNA expression (nNav1.5 mRNA): blocked this increase
- effect on nNav1.5 mRNA expression (nNav1.5 mRNA): Lack of effect
- effect on nNav1.5 protein expression (nNav1.5 protein): no effect
- effect of TTX on invasiveness (SW620 cells [2]): no effect
- effect on invasiveness (SW620 cells [2]): no effect
- reduction of invasiveness by TTX (SW620 cells [2]): 32% and 34%
- reduction of invasiveness cf. hypoxia control (SW620 cells [2]): 45%
- inhibition of invasiveness (SW620 cells [2]; 20 µM): 37%
- effect on proliferation (SW620 cells [4]): not affected

Compound: AGGUAGUGUAAUCGCCUUG (listed as RNA, chemistry not given here) [c-siRNA, non-targeting control siRNA supplied by Eurofins]
- effect on invasiveness (SW620 cells [2]; SW620 cells, normoxia or hypoxia (1% O2, 72 h)): no effect

Compound: CUAGGCAAUUUGUCGGCUC [n1-siRNA]
- proportion of cells demonstrating VGSC currents [1]: 42%
- peak VGSC current density [1]: 0.0 (0-3.1) pA/pF
- decrease in nNav1.5 mRNA levels in comparison to c-siRNA (nNav1.5 mRNA; SW620 cells): 50±12%
- reduction in number of invaded cells compared to c-siRNA (SW620 cells [2]; SW620 cells, normoxia): 64%
